Each structure is given as a SMILES string.

Holding throughout (format): ADME
The target of one data set is Cytochrome P450 2C18 (Homo sapiens, UniProt P33260). Briefly: Activity of human recombinant CYP2C18 assessed as enzyme-mediated 2-hydroxyethyl (1R,3aR,4aR,6R,8aR,9S,9aS)-9-((E)-2-(5-(3-fluorophenyl)pyridin-2-yl)vinyl)-1-methyl-3-oxododecahydronaphtho[2,3-c]furan-6-ylcarbamate formation at 25 uM after 120 mins by LC-MS/MS analysis in presence of NADPH. The following applies: 2 h.

In a further data set the target is T1, Cytochrome P450 1A1 (Homo sapiens, UniProt P04798).
T1 sequence (P04798 whole entry): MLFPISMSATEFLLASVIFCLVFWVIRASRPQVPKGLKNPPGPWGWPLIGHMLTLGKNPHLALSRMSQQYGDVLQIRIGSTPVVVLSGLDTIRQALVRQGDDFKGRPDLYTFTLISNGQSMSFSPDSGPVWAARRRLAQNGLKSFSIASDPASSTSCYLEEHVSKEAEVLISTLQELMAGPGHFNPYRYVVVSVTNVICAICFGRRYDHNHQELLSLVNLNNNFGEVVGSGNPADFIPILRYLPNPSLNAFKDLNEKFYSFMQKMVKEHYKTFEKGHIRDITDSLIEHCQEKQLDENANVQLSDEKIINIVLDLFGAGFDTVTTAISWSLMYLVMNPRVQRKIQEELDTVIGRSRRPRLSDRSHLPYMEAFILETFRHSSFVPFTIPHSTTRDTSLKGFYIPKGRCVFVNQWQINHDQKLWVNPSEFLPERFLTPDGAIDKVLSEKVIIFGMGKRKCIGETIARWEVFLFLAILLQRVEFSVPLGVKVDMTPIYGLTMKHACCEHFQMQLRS
Briefly: Activity of human recombinant CYP1A1 assessed as enzyme-mediated drug metabolism at 10 uM after 120 mins by LC-MS/MS analysis. The following applies: 2 h.

The target in data set [1] is T2, Cytochrome P450 1A2 (Homo sapiens, UniProt P05177).
T2 sequence (P05177 whole entry): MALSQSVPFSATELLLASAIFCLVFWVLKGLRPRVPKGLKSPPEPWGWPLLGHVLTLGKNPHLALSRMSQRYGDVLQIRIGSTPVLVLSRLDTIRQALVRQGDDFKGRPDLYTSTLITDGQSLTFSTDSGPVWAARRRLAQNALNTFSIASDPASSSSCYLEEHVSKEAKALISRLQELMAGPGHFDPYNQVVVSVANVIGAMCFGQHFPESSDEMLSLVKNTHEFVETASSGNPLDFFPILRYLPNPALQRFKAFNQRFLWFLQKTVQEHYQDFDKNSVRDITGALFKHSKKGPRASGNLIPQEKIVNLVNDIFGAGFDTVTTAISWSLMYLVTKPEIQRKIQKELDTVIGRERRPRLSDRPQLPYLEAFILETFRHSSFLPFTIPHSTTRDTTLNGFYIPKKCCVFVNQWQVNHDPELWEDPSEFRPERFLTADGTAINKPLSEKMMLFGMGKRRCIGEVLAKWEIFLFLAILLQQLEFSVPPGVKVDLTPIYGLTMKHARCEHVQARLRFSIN
The data set can be described thus: Activity of human recombinant CYP1A2 assessed as enzyme-mediated drug metabolism at 10 uM after 120 mins by LC-MS/MS analysis. The following applies: 2 h.

A further data set has as its target Cytochrome P450 2C19 (Homo sapiens, UniProt P33261). Briefly: Activity of human recombinant CYP2C19 assessed as enzyme-mediated (3R,3aS,4S,4aR,7R,8aR,9aR)-7-amino-4-((E)-2-(5-(3-fluorophenyl)pyridin-2-yl)vinyl)-3-methyldecahydronaphtho[2,3-c]furan-1(3H)-one formation at 25 uM after 120 mins by LC-MS/MS analysis in presence of NADPH. To be noted: 2 h.
A further data set concerns the target Cytochrome P450 2C9 (Homo sapiens, UniProt P11712). Briefly: Activity of human recombinant CYP2C9 assessed as enzyme-mediated 2-hydroxyethyl (1R,3aR,4aR,6R,8aR,9S,9aS)-9-((E)-2-(5-(3-fluorophenyl)pyridin-2-yl)vinyl)-1-methyl-3-oxododecahydronaphtho[2,3-c]furan-6-ylcarbamate formation at 25 uM after 120 mins by LC-MS/MS analysis in presence of NADPH. To be noted: 2 h.

Data set [2] addresses T2, Cytochrome P450 1A2. Briefly: Activity of human recombinant CYP1A2 assessed as enzyme-mediated 2-hydroxyethyl (1R,3aR,4aR,6R,8aR,9S,9aS)-9-((E)-2-(5-(3-fluorophenyl)pyridin-2-yl)vinyl)-1-methyl-3-oxododecahydronaphtho[2,3-c]furan-6-ylcarbamate formation at 25 uM after 120 mins by LC-MS/MS analysis in presence of NADPH. The following applies: 2 h.
In another data set the target is Cytochrome P450 1B1 (Homo sapiens, UniProt Q16678). The data set can be described thus: Activity of human recombinant CYP1B1 assessed as enzyme-mediated drug metabolism treated with 25 uM vorapaxar after 120 mins by LC-MS/MS analysis in presence of NADPH. To be noted: 2 h.
Cytochrome P450 1B1, sequence (Q16678 whole entry): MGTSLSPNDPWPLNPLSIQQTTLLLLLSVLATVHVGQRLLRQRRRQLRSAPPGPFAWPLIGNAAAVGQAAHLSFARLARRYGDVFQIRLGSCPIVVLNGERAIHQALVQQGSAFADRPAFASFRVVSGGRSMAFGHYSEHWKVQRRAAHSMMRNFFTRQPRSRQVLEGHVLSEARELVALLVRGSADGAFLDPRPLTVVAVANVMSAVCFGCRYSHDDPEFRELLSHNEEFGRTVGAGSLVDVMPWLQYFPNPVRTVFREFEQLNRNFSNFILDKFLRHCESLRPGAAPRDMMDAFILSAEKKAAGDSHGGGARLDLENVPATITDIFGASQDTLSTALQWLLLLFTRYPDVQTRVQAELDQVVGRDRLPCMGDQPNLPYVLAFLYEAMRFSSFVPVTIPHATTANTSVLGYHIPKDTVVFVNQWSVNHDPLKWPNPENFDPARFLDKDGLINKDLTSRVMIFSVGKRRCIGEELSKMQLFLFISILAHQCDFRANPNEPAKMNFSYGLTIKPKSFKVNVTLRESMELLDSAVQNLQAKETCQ
A further data set concerns the target Cytochrome P450 4F12 (Homo sapiens, UniProt Q9HCS2). Briefly: Activity of human recombinant CYP4F12 assessed as enzyme-mediated drug metabolism treated with 25 uM vorapaxar after 120 mins by LC-MS/MS analysis in presence of NADPH. To be noted: 2 h.
Data set [3] concerns Liver microsome. The data set can be described thus: Drug metabolism in human liver microsomes assessed as (3R,3aS,4S,4aR,7R,8aR,9aR)-7-amino-4-((E)-2-(5-(3-fluorophenyl)pyridin-2-yl)vinyl)-3-methyldecahydronaphtho[2,3-c]furan-1(3H)-one formation at 10 to 25 uM after 120 mins by LC-MS/MS analysis in presence of CYP2B6-specific inhibitory antibody. To be noted: 2 h.
The next data set addresses CYP3A5 (Homo sapiens, UniProt P20815). Briefly: Activity of human recombinant CYP3A5 assessed as enzyme-mediated drug metabolism at 10 uM after 120 mins by LC-MS/MS analysis in presence of NADPH. The following applies: read-out: Compound recovery.
The test system of data set [4] is Liver microsome. Briefly: Drug metabolism in human liver microsomes assessed as 2-hydroxyethyl (1R,3aR,4aR,6R,8aR,9S,9aS)-9-((E)-2-(5-(3-fluorophenyl)pyridin-2-yl)vinyl)-1-methyl-3-oxododecahydronaphtho[2,3-c]furan-6-ylcarbamate formation at 25 uM after 120 mins by LC-MS/MS analysis in presence of ketoconazole. To be noted: 2 h.
The subject of data set [5] is Liver microsome. Briefly: Drug metabolism in human liver microsomes assessed as 2-hydroxyethyl (1R,3aR,4aR,6R,8aR,9S,9aS)-9-((E)-2-(5-(3-fluorophenyl)pyridin-2-yl)vinyl)-1-methyl-3-oxododecahydronaphtho[2,3-c]furan-6-ylcarbamate formation at 25 uM after 120 mins by LC-MS/MS analysis. To be noted: 2 h.

CYP3A5, sequence (P20815 whole entry): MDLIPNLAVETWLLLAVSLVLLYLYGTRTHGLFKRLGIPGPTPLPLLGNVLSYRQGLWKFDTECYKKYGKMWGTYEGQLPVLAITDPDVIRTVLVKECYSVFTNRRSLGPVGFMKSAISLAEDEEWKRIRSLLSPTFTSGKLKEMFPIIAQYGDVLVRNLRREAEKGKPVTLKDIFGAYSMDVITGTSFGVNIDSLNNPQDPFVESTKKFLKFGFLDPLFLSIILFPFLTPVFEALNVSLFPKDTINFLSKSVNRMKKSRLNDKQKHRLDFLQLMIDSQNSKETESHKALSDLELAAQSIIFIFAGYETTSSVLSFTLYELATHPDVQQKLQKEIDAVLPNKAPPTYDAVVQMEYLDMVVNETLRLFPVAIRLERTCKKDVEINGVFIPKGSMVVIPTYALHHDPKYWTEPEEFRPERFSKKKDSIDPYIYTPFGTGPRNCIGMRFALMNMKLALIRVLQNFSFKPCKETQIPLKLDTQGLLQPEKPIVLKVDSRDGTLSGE
Cytochrome P450 4F12, sequence (Q9HCS2 whole entry): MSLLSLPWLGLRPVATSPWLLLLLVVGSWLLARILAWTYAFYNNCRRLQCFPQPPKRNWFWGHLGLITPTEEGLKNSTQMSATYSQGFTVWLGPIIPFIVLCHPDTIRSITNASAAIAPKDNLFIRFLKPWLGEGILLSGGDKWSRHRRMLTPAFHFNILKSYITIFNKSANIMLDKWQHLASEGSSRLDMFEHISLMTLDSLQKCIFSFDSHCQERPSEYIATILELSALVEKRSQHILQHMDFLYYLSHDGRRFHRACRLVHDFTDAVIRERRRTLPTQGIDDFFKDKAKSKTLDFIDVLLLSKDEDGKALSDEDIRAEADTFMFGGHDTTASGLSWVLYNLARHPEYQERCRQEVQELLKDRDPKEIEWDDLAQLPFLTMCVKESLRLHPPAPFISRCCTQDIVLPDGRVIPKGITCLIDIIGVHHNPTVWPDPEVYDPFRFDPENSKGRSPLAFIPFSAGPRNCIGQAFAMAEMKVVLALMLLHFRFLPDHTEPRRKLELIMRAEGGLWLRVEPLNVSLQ
Cytochrome P450 2C18, sequence (P33260 whole entry): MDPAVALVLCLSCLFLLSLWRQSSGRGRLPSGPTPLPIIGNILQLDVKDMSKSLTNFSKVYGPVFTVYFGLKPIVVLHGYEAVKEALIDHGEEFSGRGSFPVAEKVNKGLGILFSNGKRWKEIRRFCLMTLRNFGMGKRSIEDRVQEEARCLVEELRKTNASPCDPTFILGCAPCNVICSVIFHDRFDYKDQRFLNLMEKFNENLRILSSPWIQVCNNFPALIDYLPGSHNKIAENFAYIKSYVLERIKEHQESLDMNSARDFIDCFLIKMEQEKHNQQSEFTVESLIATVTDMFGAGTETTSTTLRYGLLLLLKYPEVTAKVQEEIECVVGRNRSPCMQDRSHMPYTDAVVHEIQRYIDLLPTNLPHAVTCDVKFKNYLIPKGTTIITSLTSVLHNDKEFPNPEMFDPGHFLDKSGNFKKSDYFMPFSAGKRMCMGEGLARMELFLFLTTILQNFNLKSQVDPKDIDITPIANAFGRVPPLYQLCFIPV
Cytochrome P450 2C9, sequence (P11712 whole entry): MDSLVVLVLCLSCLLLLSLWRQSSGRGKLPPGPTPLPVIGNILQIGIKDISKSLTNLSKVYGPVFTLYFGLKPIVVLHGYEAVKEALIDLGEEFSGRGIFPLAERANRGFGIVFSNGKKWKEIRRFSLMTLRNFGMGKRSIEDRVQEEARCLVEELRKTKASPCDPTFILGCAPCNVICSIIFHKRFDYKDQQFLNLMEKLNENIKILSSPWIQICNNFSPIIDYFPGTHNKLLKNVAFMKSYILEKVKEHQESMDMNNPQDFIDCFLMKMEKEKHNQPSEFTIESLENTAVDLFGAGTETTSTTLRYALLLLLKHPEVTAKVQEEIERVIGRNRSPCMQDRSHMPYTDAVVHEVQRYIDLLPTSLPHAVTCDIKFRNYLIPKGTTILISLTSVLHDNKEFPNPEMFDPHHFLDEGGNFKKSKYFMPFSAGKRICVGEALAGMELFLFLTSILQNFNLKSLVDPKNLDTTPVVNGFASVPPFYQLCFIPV
Cytochrome P450 2C19, sequence (P33261 whole entry): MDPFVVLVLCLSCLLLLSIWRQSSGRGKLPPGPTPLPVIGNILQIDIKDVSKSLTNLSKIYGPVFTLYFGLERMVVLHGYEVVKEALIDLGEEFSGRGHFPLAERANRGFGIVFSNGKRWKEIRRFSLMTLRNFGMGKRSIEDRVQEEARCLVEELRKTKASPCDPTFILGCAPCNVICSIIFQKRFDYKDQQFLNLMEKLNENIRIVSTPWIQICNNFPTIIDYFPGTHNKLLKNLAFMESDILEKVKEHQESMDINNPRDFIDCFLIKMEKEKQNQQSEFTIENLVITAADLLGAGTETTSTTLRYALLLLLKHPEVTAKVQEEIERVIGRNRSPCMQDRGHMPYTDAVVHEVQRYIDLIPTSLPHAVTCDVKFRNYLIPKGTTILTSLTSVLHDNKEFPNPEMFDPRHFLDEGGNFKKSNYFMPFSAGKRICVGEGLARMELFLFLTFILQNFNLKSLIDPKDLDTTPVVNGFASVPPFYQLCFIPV

For the compound `CCOC(=O)N[C@@H]1CC[C@@H]2[C@@H](C1)C[C@H]1C(=O)O[C@H](C)[C@H]1[C@H]2/C=[14CH]/c1ccc(-c2cccc(F)c2)cn1`, the Drug metabolism result at Cytochrome P450 2C18 was “metabolite_detected”; at Cytochrome P450 1A1, “metabolite_not_detected”; on Cytochrome P450 1A2 [1], “metabolite_not_detected”; on Cytochrome P450 2C19 it was “metabolite_detected”; at Cytochrome P450 2C9 it was “metabolite_detected”; on Cytochrome P450 1A2 [2], “metabolite_detected”.
Turning to `C[C@H]1OC(=O)[C@@H]2C[C@@H]3C[C@H](NC(=O)OCCO)CC[C@H]3[C@H](/C=C/c3ccc(-c4cccc(F)c4)cn3)[C@H]12`, the Drug metabolism entry on Cytochrome P450 1B1 and on Cytochrome P450 4F12 was “metabolite_detected” in each case.
As to `CCOC(=O)N[C@@H]1CC[C@@H]2[C@@H](C1)C[C@H]1C(=O)O[C@H](C)[C@H]1[C@H]2/C=C/c1ccc(-c2cccc(F)c2)cn1` [VORAPAXAR], the Drug metabolism entry with Liver microsome [3] is “metabolite_detected”; in the data set on Liver microsome [4] it was “metabolite_not_detected”; in the data set on Liver microsome [5] it was “metabolite_not_detected”. The remaining at 2 h, 10 µM on CYP3A5 came out at 93.9%.

The record behind these values is ChEMBL document CHEMBL3526033, “Identification of human liver cytochrome P450 enzymes involved in the metabolism of SCH 530348 (Vorapaxar), a potent oral thrombin protease-activated receptor 1 antagonist” (Drug Metab Dispos, 2011).
